Values joined by “and” are separate entries in the source; they are usually repeats but may differ in a detail not shown here. Equal entries are not always repeated. Toxic doses and inconclusive results are not listed.
System: CD2F1 mice, L1210 leukemia ip, survival T/C
Experiment: NCI In Vivo Anticancer Drug Screen. Data for tumor model L1210 Leukemia (intraperitoneal) in CD2F1 (CDF1) mice
Conditions: higher = longer survival
In short: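 Read-out first: treated-group measurement over vehicle-control measurement, expressed as a ratio. Animals bore a transplanted tumor line and were dosed with compound or vehicle.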

[1] = endpoint: mean survival time, dose: 100.0 mg/kg/injection, schedule: Q01DX001 (ip), vehicle: saline with Tween-80
[2] = endpoint: mean survival time, dose: 200.0 mg/kg/injection, schedule: Q01DX001 (ip), vehicle: saline with Tween-80
[3] = endpoint: mean survival time, dose: 400.0 mg/kg/injection, schedule: Q01DX001 (ip), vehicle: saline with Tween-80
[4] = endpoint: mean survival time, dose: 400.0 mg/kg/injection, schedule: Q01DX009 (ip), vehicle: saline with Tween-80
[5] = endpoint: mean survival time, dose: 50.0 mg/kg/injection, schedule: Q04DX003 (ip), vehicle: saline with Tween-80
[6] = endpoint: mean survival time, dose: 100.0 mg/kg/injection, schedule: Q04DX003 (ip), vehicle: saline with Tween-80
[7] = endpoint: mean survival time, dose: 200.0 mg/kg/injection, schedule: Q04DX003 (ip), vehicle: saline with Tween-80
[8] = endpoint: mean survival time, dose: 25.0 mg/kg/injection, schedule: Q01DX009 (ip), vehicle: saline with Tween-80
[9] = endpoint: mean survival time, dose: 50.0 mg/kg/injection, schedule: Q01DX009 (ip), vehicle: saline with Tween-80
[10] = endpoint: mean survival time, dose: 100.0 mg/kg/injection, schedule: Q01DX009 (ip), vehicle: saline with Tween-80
[11] = endpoint: mean survival time, dose: 200.0 mg/kg/injection, schedule: Q01DX009 (ip), vehicle: saline with Tween-80
[12] = endpoint: mean survival time, dose: 100.0 mg/kg/injection, schedule: Q04DX002 (ip), vehicle: saline with Tween-80
[13] = endpoint: mean survival time, dose: 200.0 mg/kg/injection, schedule: Q04DX002 (ip), vehicle: saline with Tween-80
[14] = endpoint: mean survival time, dose: 400.0 mg/kg/injection, schedule: Q04DX003 (ip), vehicle: saline with Tween-80

CC(=O)OCC1OC([Se][As](C)C)C(OC(C)=O)C(OC(C)=O)C1OC(C)=O (stereo unspecified)
T/C (endpoint: mean survival time, dose: 3.13 mg/kg/injection, schedule: Q01DX009 (ip), vehicle: saline with Tween-80): 98 % of control
T/C (endpoint: mean survival time, dose: 6.25 mg/kg/injection, schedule: Q01DX001 (ip), vehicle: saline with Tween-80): 95 % of control
T/C (endpoint: mean survival time, dose: 6.25 mg/kg/injection, schedule: Q01DX009 (ip), vehicle: saline with Tween-80): 96 % of control
T/C (endpoint: mean survival time, dose: 12.5 mg/kg/injection, schedule: Q01DX001 (ip), vehicle: saline with Tween-80): 97 % of control
T/C (endpoint: mean survival time, dose: 12.5 mg/kg/injection, schedule: Q01DX009 (ip), vehicle: saline with Tween-80): 96 % of control

O=NN(CCCl)C(=O)Oc1ccc(OC(=O)N(CCCl)N=O)cc1
T/C (endpoint: median survival time, dose: 3.12 mg/kg/injection, schedule: Q01DX009 (ip), vehicle: Klucel (hydroxypropylcellulose) (HPC)): 104 % of control
T/C (endpoint: median survival time, dose: 6.25 mg/kg/injection, schedule: Q01DX009 (ip), vehicle: Klucel (hydroxypropylcellulose) (HPC)): 114 % of control
T/C (endpoint: median survival time, dose: 12.5 mg/kg/injection, schedule: Q01DX009 (ip), vehicle: Klucel (hydroxypropylcellulose) (HPC)): 118 % of control
T/C (endpoint: median survival time, dose: 25.0 mg/kg/injection, schedule: Q01DX009 (ip), vehicle: Klucel (hydroxypropylcellulose) (HPC)): 113 % of control
T/C (endpoint: median survival time, dose: 50.0 mg/kg/injection, schedule: Q01DX009 (ip), vehicle: Klucel (hydroxypropylcellulose) (HPC)): 93 % of control

CCCCCCCNC(=O)Nc1ccc(Cl)c(Cl)c1
T/C [1]: 103 % of control
T/C [2]: 100 % of control
T/C [3]: 103 % of control

O=NN(CCCl)C(=O)Nc1ccc2[nH]c3ccccc3c2c1
T/C (endpoint: mean survival time, dose: 25.0 mg/kg/injection, schedule: Q01DX009 (ip), vehicle: Klucel (hydroxypropylcellulose) (HPC)): 101 % of control
T/C (endpoint: mean survival time, dose: 50.0 mg/kg/injection, schedule: Q01DX009 (ip), vehicle: Klucel (hydroxypropylcellulose) (HPC)): 116 % of control
T/C (endpoint: mean survival time, dose: 100.0 mg/kg/injection, schedule: Q01DX009 (ip), vehicle: Klucel (hydroxypropylcellulose) (HPC)): 118 % of control
T/C (endpoint: mean survival time, dose: 177.0 mg/kg/injection, schedule: Q01DX009 (ip), vehicle: saline with Tween-80): 91 % of control
T/C (endpoint: mean survival time, dose: 200.0 mg/kg/injection, schedule: Q01DX009 (ip), vehicle: Klucel (hydroxypropylcellulose) (HPC)): 123 % of control
T/C [4]: 104 % of control

C=C(C)C1CCC2(C(=O)O)CCC3(C)C(CCC4C5(C)CCC(OC(C)=O)C(C)(C)C5CCC43C)C12 (stereo unspecified)
T/C (endpoint: mean survival time, dose: 100.0 mg/kg/injection, schedule: Q01DX001 (ip), vehicle: Klucel (hydroxypropylcellulose) (HPC)): 93 % of control
T/C (endpoint: mean survival time, dose: 200.0 mg/kg/injection, schedule: Q01DX001 (ip), vehicle: Klucel (hydroxypropylcellulose) (HPC)): 93 % of control
T/C (endpoint: mean survival time, dose: 400.0 mg/kg/injection, schedule: Q01DX001 (ip), vehicle: Klucel (hydroxypropylcellulose) (HPC)): 91 % of control

Cc1cc(=O)n(C)c2ccccc12
T/C [5]: 95 % of control
T/C [6]: 103 % of control
T/C [7]: 97 % of control

CCCCC/C=C\C/C=C\CCCCCCCC(=O)OCC1CNP(=O)(N(CCCl)CCCl)O1 (stereo unspecified)
T/C (endpoint: mean survival time, dose: 6.25 mg/kg/injection, schedule: Q01DX009 (ip), vehicle: water): 103 % of control
T/C (endpoint: mean survival time, dose: 12.5 mg/kg/injection, schedule: Q01DX009 (ip), vehicle: water): 95 % of control
T/C (endpoint: mean survival time, dose: 23.3 mg/kg/injection, schedule: Q01DX001 (ip), vehicle: DMSO): 101 % of control
T/C (endpoint: mean survival time, dose: 25.0 mg/kg/injection, schedule: Q01DX009 (ip), vehicle: water): 95 % of control
T/C (endpoint: mean survival time, dose: 38.9 mg/kg/injection, schedule: Q01DX001 (ip), vehicle: DMSO): 98 % of control
T/C (endpoint: mean survival time, dose: 50.0 mg/kg/injection, schedule: Q01DX009 (ip), vehicle: water): 97 % of control
T/C (endpoint: mean survival time, dose: 64.8 mg/kg/injection, schedule: Q01DX001 (ip), vehicle: DMSO): 98 % of control
T/C (endpoint: mean survival time, dose: 100.0 mg/kg/injection, schedule: Q01DX009 (ip), vehicle: water): 103 % of control
T/C (endpoint: mean survival time, dose: 108.0 mg/kg/injection, schedule: Q01DX001 (ip), vehicle: DMSO): 97 % of control
T/C (endpoint: mean survival time, dose: 180.0 mg/kg/injection, schedule: Q01DX001 (ip), vehicle: DMSO): 98 % of control
T/C (endpoint: mean survival time, dose: 200.0 mg/kg/injection, schedule: Q01DX009 (ip), vehicle: water): 103 % of control
T/C (endpoint: mean survival time, dose: 300.0 mg/kg/injection, schedule: Q01DX001 (ip), vehicle: DMSO): 97 % of control

CCC1CCC(NC(C)=O)CC1 (stereo unspecified)
T/C [1]: 96 % of control

CCCCCCCCCCCCN(C)C
T/C [8]: 92 % of control
T/C (endpoint: mean survival time, dose: 25.0 mg/kg/injection, schedule: Q04DX003 (ip), vehicle: saline with Tween-80): 97 % of control
T/C (endpoint: mean survival time, dose: 50.0 mg/kg/injection, schedule: Q01DX001 (ip), vehicle: saline): 96 % of control
T/C [9]: 92 % of control
T/C [5]: 100 % of control
T/C (endpoint: mean survival time, dose: 100.0 mg/kg/injection, schedule: Q01DX001 (ip), vehicle: saline): 100 % of control
T/C [6]: 102 % of control

Brc1sc(Br)c(Br)c1Br
T/C [1]: 109 % of control
T/C [10]: 100 % of control
T/C [2]: 95 % of control
T/C [11]: 101 % of control
T/C [3]: 102 % of control
T/C [4]: 101 % of control

Nc1cc2c(c[n+](Cc3ccccc3)c3ccccc23)c2ccccc12
T/C (endpoint: mean survival time, dose: 0.39 mg/kg/injection, schedule: Q04DX003 (ip), vehicle: other): 104 % of control
T/C (endpoint: mean survival time, dose: 0.78 mg/kg/injection, schedule: Q04DX003 (ip), vehicle: other): 98 % of control
T/C (endpoint: mean survival time, dose: 1.56 mg/kg/injection, schedule: Q04DX003 (ip), vehicle: other): 104 % of control
T/C (endpoint: mean survival time, dose: 6.25 mg/kg/injection, schedule: Q04DX003 (ip), vehicle: other): 91 % of control

CCCC1=CC(C)(C)CC(C)=C1 (tested in a mixture with another compound)
T/C [9]: 98 % of control
T/C [10]: 96 % of control
T/C [6]: 102 % of control
T/C [11]: 100 % of control
T/C [7]: 100 % of control

CCCCN1CCNCC1
T/C (endpoint: mean survival time, dose: 100.0 mg/kg/injection, schedule: Q04DX003 (ip), vehicle: saline): 93 % of control
T/C (endpoint: mean survival time, dose: 200.0 mg/kg/injection, schedule: Q04DX003 (ip), vehicle: saline): 94 % of control

Nc1nc(N)c2nc(CNc3ccc(C(=O)NC(CCC(=O)O)C(=O)O)cc3)cnc2n1 (stereo unspecified)
T/C (endpoint: mean survival time, dose: 0.2 mg/kg/injection, schedule: Q01DX009 (ip), vehicle: alkali diluted with saline): 150 % of control
T/C (endpoint: mean survival time, dose: 0.3 mg/kg/injection, schedule: Q01DX009 (ip), vehicle: alkali diluted with saline): 156 % of control
T/C (endpoint: mean survival time, dose: 0.44 mg/kg/injection, schedule: Q01DX009 (ip), vehicle: alkali diluted with saline): 174 % of control
T/C (endpoint: mean survival time, dose: 0.67 mg/kg/injection, schedule: Q01DX009 (ip), vehicle: alkali diluted with saline): 166 % of control
T/C (endpoint: mean survival time, dose: 0.7 mg/kg/injection, schedule: Q01DX009 (ip), vehicle: alkali diluted with saline): 118 % of control
T/C (endpoint: mean survival time, dose: 1.0 mg/kg/injection, schedule: Q01DX009 (ip), vehicle: alkali diluted with saline): 114 % of control
T/C (endpoint: mean survival time, dose: 1.1 mg/kg/injection, schedule: Q01DX009 (ip), vehicle: alkali diluted with saline): 96 % of control
T/C (endpoint: mean survival time, dose: 1.5 mg/kg/injection, schedule: Q01DX009 (ip), vehicle: alkali diluted with saline): 104 % of control
T/C (endpoint: mean survival time, dose: 1.7 mg/kg/injection, schedule: Q01DX009 (ip), vehicle: alkali diluted with saline): 86 % of control

CCCCCCCS(=O)CCCl (stereo unspecified)
T/C [12]: 96 % of control
T/C [13]: 108 % of control

[N-]=[N+]=NCCCCCCCCCCN=[N+]=[N-]
T/C (endpoint: mean survival time, dose: 75.0 mg/kg/injection, schedule: Q01DX001 (ip), vehicle: saline): 98 % of control
T/C (endpoint: mean survival time, dose: 150.0 mg/kg/injection, schedule: Q01DX001 (ip), vehicle: saline): 101 % of control
T/C (endpoint: mean survival time, dose: 300.0 mg/kg/injection, schedule: Q01DX001 (ip), vehicle: saline): 98 % of control

CCCCCCCCCCCCCCCCCCN (tested in a mixture with another compound)
T/C [12]: 98 % of control
T/C [13]: 98 % of control

CC(=O)Nc1ccc([N+](=O)[O-])cc1
T/C [10]: 96 % of control
T/C [6]: 90 % of control
T/C [11]: 101 % of control
T/C [7]: 98 % of control
T/C [4]: 111 % of control
T/C [14]: 98 % of control

Oc1ccc(C=NCCN=Cc2ccc(O)cc2O)c(O)c1
T/C (endpoint: mean survival time, dose: 8.0 mg/kg/injection, schedule: Q01DX009 (ip), vehicle: saline with Tween-80): 98 % of control
T/C (endpoint: mean survival time, dose: 12.0 mg/kg/injection, schedule: Q01DX009 (ip), vehicle: saline with Tween-80): 87 % of control
T/C (endpoint: mean survival time, dose: 18.0 mg/kg/injection, schedule: Q01DX009 (ip), vehicle: saline with Tween-80): 92 % of control
T/C [8]: 114 % of control and 96 % of control
T/C [10]: 87 % of control
T/C [6]: 87 % of control
T/C [14]: 88 % of control
